Earlier results in patent publication US8754096B2, “Piperidinone carboxamide azaindane CGRP receptor antagonists” (Merck Sharp & Dohme Corp., priority 2010, dated 2014).

Test system: migraine
Conditions: phase III clinical trials, orally bioavailable

O=C(N[C@@H]1CC[C@@H](c2cccc(F)c2F)CN(CC(F)(F)F)C1=O)N1CCC(n2c(=O)[nH]c3ncccc32)CC1 [telcagepant]
antimigraine effectiveness: shown antimigraine effectiveness
